Test: excess molar enthalpy (molar enthalpy of mixing); xn = mol fraction of the nth substance listed
Details: Liquid

CO [methanol] + O
Details | excess molar enthalpy [kcal/mol]
425.1 K, 10000 kPa, x1 = 0.8 | 0.0323
468.38 K, 10000 kPa, x1 = 0.4 | 0.119
468.72 K, 8500 kPa, x1 = 0.4 | 0.115
469.1 K, 10000 kPa, x1 = 0.6 | 0.114
469.29 K, 5000 kPa, x1 = 0.4 | 0.104
469.31 K, 8500 kPa, x1 = 0.6 | 0.11
469.39 K, 5000 kPa, x1 = 0.3 | 0.0932
469.49 K, 5000 kPa, x1 = 0.5 | 0.104
469.5 K, 10000 kPa, x1 = 0.2 | 0.0801
469.66 K, 8500 kPa, x1 = 0.2 | 0.0793
469.81 K, 5000 kPa, x1 = 0.2 | 0.0717
469.91 K, 5000 kPa, x1 = 0.6 | 0.096
470.63 K, 5000 kPa, x1 = 0.7 | 0.0803
470.65 K, 10000 kPa, x1 = 0.4 | 0.122
470.78 K, 10000 kPa, x1 = 0.6 | 0.115
470.8 K, 10000 kPa, x1 = 0.8 | 0.0707
471.01 K, 8500 kPa, x1 = 0.4 | 0.118
471.06 K, 8500 kPa, x1 = 0.8 | 0.0689
471.22 K, 5000 kPa, x1 = 0.1 | 0.0392
471.24 K, 5000 kPa, x1 = 0.4 | 0.104
471.34 K, 5000 kPa, x1 = 0.8 | 0.057
471.36 K, 5000 kPa, x1 = 0.5 | 0.104
471.45 K, 5000 kPa, x1 = 0.3 | 0.0941
471.49 K, 8500 kPa, x1 = 0.6 | 0.113
471.54 K, 8500 kPa, x1 = 0.2 | 0.0812
471.91 K, 5000 kPa, x1 = 0.6 | 0.0953
472.04 K, 5000 kPa, x1 = 0.7 | 0.0796
472.16 K, 10000 kPa, x1 = 0.8 | 0.0715
472.23 K, 5000 kPa, x1 = 0.9 | 0.0296
472.28 K, 5000 kPa, x1 = 0.8 | 0.0561
472.49 K, 10000 kPa, x1 = 0.2 | 0.0832
473.11 K, 5000 kPa, x1 = 0.2 | 0.0722
473.15 K, 5000 kPa, x1 = 0.1 | 0.0395
473.15 K, 5000 kPa, x1 = 0.2 | 0.0719
473.15 K, 5000 kPa, x1 = 0.3 | 0.0932
473.15 K, 5000 kPa, x1 = 0.4 | 0.103
473.15 K, 5000 kPa, x1 = 0.5 | 0.103
473.15 K, 5000 kPa, x1 = 0.6 | 0.095
473.15 K, 5000 kPa, x1 = 0.7 | 0.0788
473.15 K, 5000 kPa, x1 = 0.8 | 0.0555
473.15 K, 5000 kPa, x1 = 0.9 | 0.0298
473.15 K, 8500 kPa, x1 = 0.2 | 0.0818
473.15 K, 8500 kPa, x1 = 0.4 | 0.119
473.15 K, 8500 kPa, x1 = 0.6 | 0.113
473.15 K, 8500 kPa, x1 = 0.8 | 0.0696
473.15 K, 10000 kPa, x1 = 0.2 | 0.0827
473.15 K, 10000 kPa, x1 = 0.4 | 0.124
473.15 K, 10000 kPa, x1 = 0.6 | 0.117
473.15 K, 10000 kPa, x1 = 0.8 | 0.0735
473.17 K, 5000 kPa, x1 = 0.9 | 0.0285
473.36 K, 5000 kPa, x1 = 0.1 | 0.0397
473.78 K, 8500 kPa, x1 = 0.8 | 0.0702
474.92 K, 5000 kPa, x1 = 0.1 | 0.0401
474.92 K, 5000 kPa, x1 = 0.2 | 0.0721
474.92 K, 5000 kPa, x1 = 0.3 | 0.0937
474.92 K, 5000 kPa, x1 = 0.4 | 0.103
474.92 K, 5000 kPa, x1 = 0.5 | 0.102
474.92 K, 5000 kPa, x1 = 0.6 | 0.0941
474.92 K, 5000 kPa, x1 = 0.7 | 0.0778
474.92 K, 5000 kPa, x1 = 0.8 | 0.0536
474.92 K, 5000 kPa, x1 = 0.9 | 0.0277
475.17 K, 10000 kPa, x1 = 0.2 | 0.0854
475.17 K, 10000 kPa, x1 = 0.4 | 0.126
475.17 K, 10000 kPa, x1 = 0.6 | 0.118
475.17 K, 10000 kPa, x1 = 0.8 | 0.0755
475.47 K, 8500 kPa, x1 = 0.2 | 0.083
475.47 K, 8500 kPa, x1 = 0.4 | 0.121
475.47 K, 8500 kPa, x1 = 0.6 | 0.115
475.47 K, 8500 kPa, x1 = 0.8 | 0.0705
493.71 K, 10000 kPa, x1 = 0.4 | 0.128
494.59 K, 10000 kPa, x1 = 0.2 | 0.0893
494.68 K, 10000 kPa, x1 = 0.6 | 0.118
495.72 K, 10000 kPa, x1 = 0.4 | 0.125
496.09 K, 10000 kPa, x1 = 0.2 | 0.0884
496.33 K, 10000 kPa, x1 = 0.8 | 0.0702
497.18 K, 10000 kPa, x1 = 0.6 | 0.116
498.15 K, 8500 kPa, x1 = 0.1 | 0.0443
498.15 K, 8500 kPa, x1 = 0.2 | 0.0795
498.15 K, 8500 kPa, x1 = 0.3 | 0.0979
498.15 K, 8500 kPa, x1 = 0.4 | 0.106
498.15 K, 8500 kPa, x1 = 0.5 | 0.103
498.15 K, 8500 kPa, x1 = 0.6 | 0.0938
498.15 K, 8500 kPa, x1 = 0.7 | 0.0758
498.15 K, 8500 kPa, x1 = 0.8 | 0.0522
498.15 K, 8500 kPa, x1 = 0.9 | 0.0256
498.15 K, 10000 kPa, x1 = 0.2 | 0.0875
498.15 K, 10000 kPa, x1 = 0.4 | 0.124
498.15 K, 10000 kPa, x1 = 0.6 | 0.114
498.15 K, 10000 kPa, x1 = 0.8 | 0.0689
498.93 K, 10000 kPa, x1 = 0.8 | 0.0687
500.09 K, 8500 kPa, x1 = 0.1 | 0.0446
500.09 K, 8500 kPa, x1 = 0.2 | 0.0768
500.09 K, 8500 kPa, x1 = 0.3 | 0.0941
500.09 K, 8500 kPa, x1 = 0.4 | 0.101
500.09 K, 8500 kPa, x1 = 0.5 | 0.0978
500.09 K, 8500 kPa, x1 = 0.6 | 0.0868
500.09 K, 8500 kPa, x1 = 0.7 | 0.0683
500.09 K, 8500 kPa, x1 = 0.8 | 0.0466
500.09 K, 8500 kPa, x1 = 0.9 | 0.0222
500.24 K, 10000 kPa, x1 = 0.2 | 0.087
500.24 K, 10000 kPa, x1 = 0.4 | 0.122
500.24 K, 10000 kPa, x1 = 0.6 | 0.112
500.24 K, 10000 kPa, x1 = 0.8 | 0.0679
504.64 K, 10000 kPa, x1 = 0.4 | 0.111

From the NIST ThermoML archive (doi:10.1016/j.jct.2005.03.012)
